Source: paper PMC10754118, “Lipophilic Nucleoside Triphosphate Prodrugs of Anti‐HIV Active Nucleoside Analogs as Potential Antiviral Compounds” (Advanced Science, 2023)
Where two headings read alike, the source gives them in different places.

Experiments:
HIV‐1 [HE] = assay: Anti-HIV activity, HIV-1 in wild-type CEM/0 cells; format: cell-based; details: for EC50: read-out: Antiviral activity CEM/0 HIV‐1 [HE] EC50
HIV‐2 [ROD] = assay: Anti-HIV activity, HIV-2 in wild-type CEM/0 cells; format: cell-based; details: for EC50: read-out: Antiviral activity CEM/0 HIV‐2 [ROD] EC50
Experimental: (§1) Part 9. Anti-HIV activity assay.
(§2) The produce was used as previously reported. 5 Inhibition of HIV-1(IIIB)- and HIV-2(ROD)-induced cytopathogenicity in wild-type CEM/0 and thymidine kinase-deficient CEM/TK– cell cultures was measured in […]
(§3) containing appropriate dilutions of the test compounds. After 4−5 days of incubation at 37 °C in a CO2-controlled humidified atmosphere, CEM giant (syncytium) cell formation was examined microscopically. The […]
(§4) giant cell formation by 50%.
(§5) Part 10. Primer-extension assays. […]

HIV‐2 [ROD)] = assay: Anti-HIV activity, HIV-2 in thymidine kinase-deficient CEM/TK^− cells; format: cell-based
Experimental: as §1, §2, §3, §4, §5

CEM/0 = assay: in vitro; details: read-out: Toxicity CEM/0 CC50; 50% cytostatic concentration, CEM proliferation
Experimental: (§6) All TriPPPro‐compounds 10 and 20, as well as their parent nucleosides and the corresponding NTPs, were evaluated for their antiviral activity (expressed as EC50 values) against HIV‐1 (wild‐type CEM/0 cells) and HIV‐2 (wild‐type CEM/0 cells and thymidine kinase‐deficient (CEM/TK^−) cells) with concomitant determination of cytotoxicity in the same cell line (Table 3 ).

[1] = Chemical hydrolysis in phosphate buffer saline (PBS, pH 7.3); format: physicochemical; details: PBS pH 7.3, 37 °C, read-out: PBS pH 7.3 t 1/2 (converted)
Experimental: (§7) Part 4. Chemical Hydrolysis of TriPPPro-compounds 10 and 20.
Second prepare 1.9 mM hydrolysis […]
(§8) Then, aliquots of 50 µL human

in vitro [2] = details: human
Experimental: The hydrolysis properties of TriPPPro‐compounds 10 and 20 were evaluated in phosphate buffer saline (PBS, pH 7.3), pig liver esterase (PLE) or CEM/0 cell extracts. In both cases, hydrolysis products were analyzed by means of analytical RP18‐HPLC and the hydrolysis half‐lives (Table 1 , t1/2 ) of TriPPPro‐compounds 10 and 20 were calculated after complete consumption of the starting materials.
The hydrolysis of TriPPPro‐compounds 10 and 20 was carried out with CEM/0 cell extracts as well. […]
Part 6. Enzyme-Catalyzed Hydrolysis of TriPPPro-compounds 10 and 20 in CEM Cell […]
First prepare 3.0 mM hydrolysis solutions of Tri PPPro-compounds 10 and 20 in DMSO and H2O: 21 µL stock solution (50 mM in DMSO) and 154 µL DMSO, and 175 µL Milli-Q water. Three-twelve different samples (20 µL 3.0 mM hydrolysis solutions) were prepared in 2 mL Eppendorf® vials. Then, aliquots of 50 µL human CEM cell extracts were added to these samples and the reaction was started. The samples were incubated at 37 °C in a thermomixer for different time periods. The reaction was stopped by addition of 150 µL MeOH and kept on ice for 5 min. After centrifugation at 14,000 rpm for 12 min, the supernatants were filtered (Chromafil RC-20/15 MS, 0.2 μm) and stored in liquid nitrogen. When testing, aliquots of 60 µL (injection volume) were analyzed by analytical HPLC (HPLC Method). The calculation of t1/2 was obtained using Origin again.
(§9) Part 7. Hydrolysis of TriPPPro-compounds 10 and 20 in human plasma.
µL 3.0 mM hydrolysis solutions) were prepared in 2 mL Eppendorf® vials.

pig liver esterase (PLE) = assay: Hydrolysis with pig liver esterase (PLE); format: in vitro ADME; details: pig liver esterase (PLE) in PBS, PLE in PBS pH 7.3, 37 °C, read-out: PLE t 1/2 (converted)
Source text: Next, TriPPPro‐compounds 10 and 20 were exposed to PLE in PBS (pH 7.3) and the half‐lives of TriPPPro‐compounds 10 and 20 are listed in Table 1. […] In contrast, the cleavage of the AB (C4) masking group in TriPPPro‐compounds 10by–hy and 10bz–hz was triggered by ester hydrolysis and yielded the corresponding γ‐alkylated nucleoside triphosphate derivatives 20 (Figure 3B,D) and 21 (Figures S17 and S18, Supporting Information), respectively. […] Moreover, a very small amount of NDPs was observed, probably due to a reaction involving a nucleophilic reaction at the γ‐phosphate or γ‐phosphonate moiety (pathways d and f, Scheme 5). […]
as §7
Second prepare 1.9 mM hydrolysis
Part 5. Hydrolysis of TriPPPro-compounds 10 and 20 with PLE .
Second, 125 µL DMSO and 833 µL
62.5 µL of PLE solution in PBS (100
mixture was stored in the freezer (- 30 °C).
by analytical HPLC (HPLC Method).
similar to that for the chemical hydrolysis studies. […]
as §8

in vitro [3] = details: human, plasma
Experimental: First prepare 50 mM solutions of TriPPPro-compounds 10 and 20 in DMSO. […]
First prepare 3.0 mM hydrolysis solutions of Tri PPPro-compounds 10 and 20 in DMSO and H2O: 21 µL stock solution (50 mM in DMSO) and 154 µL DMSO, and 175 µL Milli-Q water. Three-twelve different samples (20 […]
The calculation of t1/2 was obtained using Origin again.
as §9
µL 3.0 mM hydrolysis solutions) were prepared in 2 mL Eppendorf® vials. Then, aliquots of 50 µL human Plasma (Heparin or Citrate) were added to these samples and the reaction was started. The samples were […]
incubated at 37 °C in a thermomixer for different time periods. The reaction was stopped by addition of 150 µL MeOH and kept on ice for 5 min. After centrifugation at 14,000 rpm for 22 min, the supernatants were filtered (Chromafil RC-20/15 MS, 0.2 μm) and stored in liquid nitrogen. When testing, aliquots of 25 0r 30 µL (injection volume) were analyzed by analytical HPLC (HPLC Method). The calculation of t1/2 was obtained using Origin […]
Part 8. Preparation of cell extracts and human plasma. […]

in vitro [4] = details: human, CEM/0 cells (wild-type CD4+ T-cells)
Experimental: as §6

[5] = wild-type CEM/0 cells, mean ±SD n = 2–3
[6] = t 1/2 in human plasma (over heparin and citrate plasma)
[7] = Human immunodeficiency virus 1, CCRF-CEM, wild-type CEM/0 cells, mean ±SD n = 2–3
[8] = Human immunodeficiency virus 2, CCRF-CEM, wild-type CEM/0 cells, mean ±SD n = 2–3
[9] = Human immunodeficiency virus 2, CEM-TK(-), thymidine kinase-deficient CEM/TK^− cells, mean ±SD n = 2–3; read-out: Antiviral activity CEM/TK^− HIV‐2 [ROD)] EC50
[10] = wild-type CEM/0 cells, vs parent nucleoside

Compound	half-life at 1.9 mM [1]	half-life at 0.86 mM (in vitro [2])	half-life at 0.45 mM (pig liver esterase (PLE))	half-life at 0.86 mM (in vitro [3]; Plasma (Citrate) t 1/2)	half-life at 0.86 mM (in vitro [3]; Plasma (Heparin) t 1/2)	half-life at 0.86 mM (in vitro [3]; [6])	EC50 (HIV‐1 [HE]; [7])	EC50 (HIV‐2 [ROD]; [8])	EC50 (HIV‐2 [ROD)]; [9])	CC50 (in vitro [4])	other results
O=c1[nH]c(=O)n([C@H]2C[C@H](F)[C@@H](COP(=O)(O)OP(=O)(O)OP(=O)(O)O)O2)cc1Cl [FddClUTP, reference compound]	–	–	–	–	–	–	–	–	–	–	EC50 (HIV‐1 [HE]; [5]): 840 ± 860 nM; EC50 (HIV‐2 [ROD]; [5]): 650 ± 130 nM; EC50 (HIV‐2 [ROD)]; thymidine kinase-deficient CEM/TK^− cells, mean ±SD n = 2–3; read-out: Antiviral activity CEM/TK^− HIV‐2 [ROD)] EC50): > 100000 nM; CC50 (CEM/0): > 100000 nM
CCCCCCCCCCCCCCCCCCP(=O)(OCc1ccc(OC(=O)CCCC)cc1)OP(=O)(O)OP(=O)(O)OC[C@@H]1C=C[C@H](n2cnc3c(NC4CC4)nc(N)nc32)C1 (some centres unmarked) [10hz, γ‐(AB‐C4)‐γ‐C‐(alkyl‐C18)‐ABCTP]	22.2 days	7.7 h	1.11 h	5.6 h	4.1 h	4.1 to 5.6 h	200 nM	170 ± 64 nM	19 ± 1 nM	38200 ± 1300 nM	–
CCCCCCCCCCCCCCCCCCP(=O)(OCCCC)OP(=O)(O)OP(=O)(O)OC[C@@H]1C=C[C@H](n2cnc3c(NC4CC4)nc(N)nc32)C1 (some centres unmarked) [10hx]	> 41.7 days	> 10 h	> 150 h	> 20 h	> 20 h	> 8 h	–	–	–	38600 nM	EC50 (HIV‐1 [HE]; Human immunodeficiency virus 1, CCRF-CEM): 150 ± 140 nM; EC50 (HIV‐2 [ROD]; Human immunodeficiency virus 2, CCRF-CEM): 44 ± 33 nM; EC50 (HIV‐2 [ROD)]; Human immunodeficiency virus 2, CEM-TK(-), read-out: Antiviral activity CEM/TK^− HIV‐2 [ROD)] EC50): 5.8 nM
CCCCCCCCCCCCCCCCCCOP(=O)(OCCCC)OP(=O)(O)OP(=O)(O)OC[C@@H]1C=C[C@H](n2cnc3c(NC4CC4)nc(N)nc32)C1 (some centres unmarked) [10hv, γ‐(C4;C18)‐ABCTP]	10.5 days	3 h	> 150 h	> 20 h	> 8 h	> 8 h	24 ± 1.4 nM	46 ± 16 nM	4.8 ± 2.1 nM	39000 ± 4700 nM	fold improvement compared to cycloSal‐ABCMP, HIV-1 (HIV‐1 [HE]; wild-type CEM/0 cells): 30 fold; fold higher activity than the parent nucleoside, HIV-1 (HIV‐1 [HE]; [10]): ~400 fold; fold improvement compared to cycloSal‐ABCMP, HIV-2 (HIV‐2 [ROD]; wild-type CEM/0 cells): 16 fold; fold higher activity than the parent nucleoside, HIV-2 (HIV‐2 [ROD]; [10]): 80 fold; fold improved activity compared to the parent nucleoside, HIV-2 (HIV‐2 [ROD)]; CEM/TK^− cells, vs parent nucleoside): 410 fold; fold higher activity compared to the corresponding compound 20 (HIV‐2 [ROD)]; HIV-2, CEM/TK^− cells, vs 20h): 33 fold; improvement of antiviral activity in CEM/TK^− cells compared to wild-type CEM/0 cells (HIV‐2 [ROD)]; same compound, CEM/TK^− vs CEM/0): tenfold

Now from value to molecule, other results behind:

half-life at 1.9 mM [1]	half-life at 0.86 mM (in vitro [2])	half-life at 0.45 mM (pig liver esterase (PLE))	half-life at 0.86 mM (in vitro [3]; Plasma (Citrate) t 1/2)	half-life at 0.86 mM (in vitro [3]; Plasma (Heparin) t 1/2)	half-life at 0.86 mM (in vitro [3]; [6])	EC50 (HIV‐1 [HE]; [7])	EC50 (HIV‐2 [ROD]; [8])	EC50 (HIV‐2 [ROD)]; [9])	Compound	CC50 (in vitro [4])	other results
17.4 days	3.3 h	0.22 h	3.7 h	5.2 h	–	190 ± 120 nM	5.2 ± 4.1 nM	500 ± 350 nM	CCCCCCCCCCCCCCCCCCOP(=O)(OCc1ccc(OC(=O)CCCC)cc1)OP(=O)(O)OP(=O)(O)OCC1OC(n2cc(C)c(=O)[nH]c2=O)CC1N=[N+]=[N-] (centres unmarked) [10by, γ‐(AB‐C4;alkyl‐C18)‐AZTTP]	60100 nM	–
> 83.3 days	> 30 h	> 150 h	> 20 h	3.7 h	–	28 ± 31 nM	30 ± 1 nM	4100 ± 2600 nM	CCCCCCCCCCCCCCCCCCOP(=O)(O)OP(=O)(O)OP(=O)(O)OCC1OC(n2cc(C)c(=O)[nH]c2=O)CC1N=[N+]=[N-] (centres unmarked) [20b, γ‐(alkyl‐C18)‐AZTTP]	> 100000 nM	–
